Data set [1] deals with Bacillus pumilus BOD. As to the kind of experiment: Activity as a function of the presence of DTT or EDTA (SGZ oxidation). Conditions: SGZ 50 μM, 37° C., pH 6.2. The data set is classed as biochemical. The method, then: (§1) The concentration of SGZ, diluted in methanol, is fixed in the test at 50 μM. […] Table III below collates the results obtained, presented in relative activity form.

Data set [2] deals with T1, Bacillus pumilus bilirubin oxidase (BOD), wild type, strain SAFR-032, SEQ ID No. 2 (C-terminal 6xHis tag) (Bacillus pumilus, UniProt A8FAG9).
T1 sequence (A8FAG9 with tags, fused parts or gaps): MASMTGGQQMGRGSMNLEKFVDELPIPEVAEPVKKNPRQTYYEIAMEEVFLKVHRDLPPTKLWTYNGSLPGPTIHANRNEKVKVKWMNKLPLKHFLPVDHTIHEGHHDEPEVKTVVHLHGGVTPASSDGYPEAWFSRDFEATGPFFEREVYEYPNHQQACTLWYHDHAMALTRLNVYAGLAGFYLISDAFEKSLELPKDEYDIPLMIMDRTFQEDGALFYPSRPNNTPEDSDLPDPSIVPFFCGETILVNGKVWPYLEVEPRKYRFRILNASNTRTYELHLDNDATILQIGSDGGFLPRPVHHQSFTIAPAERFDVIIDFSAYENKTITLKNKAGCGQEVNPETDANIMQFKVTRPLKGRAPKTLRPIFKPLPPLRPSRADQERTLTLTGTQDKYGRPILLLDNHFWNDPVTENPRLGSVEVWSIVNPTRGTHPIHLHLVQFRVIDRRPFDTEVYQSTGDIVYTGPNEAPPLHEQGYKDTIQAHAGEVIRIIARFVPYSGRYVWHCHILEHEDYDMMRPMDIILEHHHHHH
Put plainly: Activity (SGZ oxidation) as a function of the presence of DTT or of EDTA. The data set is classed as biochemical. Conditions: 50 μM SGZ, 37° C., pH 6.2, read-out: Relative activity. The method, then: as §1

For data set [3], the target named is T1, Bacillus pumilus bilirubin oxidase (BOD), wild type, strain SAFR-032, SEQ ID No. 2 (C-terminal 6xHis tag). As to the kind of experiment: Steady-state kinetics of syringaldazine (SGZ) oxidation by B. pumilus BOD. The data set is classed as biochemical. Conditions: 37° C., 50 mM citrate/phosphate buffer, pH 6.2; model with competitive inhibition; in 1/s. The method, then: (§2) The SGZ concentration, diluted in methanol, varies in the test from 0 to 300 μM.

Data set [4] has the same target. Put plainly: Steady-state kinetics of conjugated bilirubin oxidation by B. pumilus BOD. It counts as biochemical. The conditions noted are these: 37° C., 50 mM sodium phosphate buffer, pH 4.8.
The target is the same in data set [5]. Put plainly: Steady-state kinetics of 2,6-dimethoxyphenol (DMP) oxidation by B. pumilus BOD. Conditions: 37° C., 50 mM sodium phosphate buffer, pH 6.8.
Procedure: (§3) The experiments are carried out at 37° C. on a Varian spectrophotometer in a 50 mM sodium phosphate buffer, pH 6.8. The 2,6-dimethoxyphenol concentration varies in the test from 0 to 4000 μM. The test, triggered by adding the enzyme, consists in following the oxidation of the DMP at 468 nm by coloroimetric change (ε468nm=14.8 mM^−1 cm^−1).
Data set [6] has as its system Bacillus pumilus BOD. As to the kind of experiment: Activity as a function of the presence of urea (ABTS oxidation). Conditions: urea 0 to 6 M, 100 mM citrate/phosphate buffer, pH 3.
Procedure: The experiments are carried out at 37° C. on a Varian spectrophotometer in a 0.1 M citrate/phosphate buffer, pH 3. […] The test is triggered by adding enzyme.
Substrate in data set [7]: C=CC1=C(C)/C(=C/c2[nH]c(Cc3[nH]c(/C=C4\NC(=O)C(C)=C4C=C)c(C)c3CCC(=O)O)c(CCC(=O)O)c2C)NC1=O
Put plainly: Steady-state kinetics of unconjugated bilirubin oxidation by B. pumilus BOD. Conditions: other: 37° C., 50 mM sodium phosphate buffer, pH 7. It counts as biochemical, Bacillus pumilus.

Substrate in data set [8]: COc1cc(/C=N/N=C/c2cc(OC)c(O)c(OC)c2)cc(OC)c1O
Put plainly: Steady-state kinetics of syringaldazine (SGZ) oxidation by B. pumilus BOD. The data set is classed as biochemical, Bacillus pumilus. Conditions: other: 37° C., 50 mM citrate/phosphate buffer, pH 6.2, model with competitive inhibition. As for the experimental part: as §2

Substrate in data set [9]: COc1cccc(OC)c1O
Put plainly: purified protein, by the assay type. The conditions noted are these: other: 37° C., 50 mM sodium phosphate buffer, pH 6.8.
Procedure: as §3

Data set [10] in a line: Specific activity for ABTS. The conditions noted are these: BOD according to the invention. The data set is classed as biochemical. As for the experimental part: The enzyme is diluted so as to measure a slope between 0.05 and 0.3 OD420nm/min.
The nature of data set [11]: Remazol Brilliant Blue R (RBBR) discoloration activity. It counts as biochemical. The conditions noted are these: RBBR 80 mg.l^−1, 37° C., 50 mM potassium phosphate buffer, pH 6, absence or presence of 10 μM ABTS. The method, then:
The RBBR concentration is fixed at 80 mg.l^−1 in each tank. The test, triggered by adding 10 μg of enzyme, consists in following, over time, the discoloration of the RBBR dye at 593 nm.

Data set [12] can be described thus: Stability of the enzyme as a function of temperature. It counts as physicochemical. Conditions: incubation at 80° C., residual activity on ABTS. The method, then: The enzyme is preincubated at a concentration of 10 mg/ml in a dry bath at 80° C. […] The test is triggered by adding enzyme.

For `O=C(O)CN(CCN(CC(=O)O)CC(=O)O)CC(=O)O` [EDTA], the “Relative activity (%)” value in the data set on Bacillus pumilus BOD [1] (EDTA 0.1 mM) is 97 ± 1%; in the data set on Bacillus pumilus BOD [1] (EDTA 1 mM) it was 99 ± 5%; in the data set with Bacillus pumilus BOD [1] (EDTA 10 mM), 95 ± 1%; with Bacillus pumilus BOD [1] (EDTA 25 mM), 98 ± 3%; in the data set on Bacillus pumilus BOD [1] (EDTA 50 mM), 99 ± 4%; with Bacillus pumilus BOD [1] (EDTA 75 mM) it was 95 ± 2%. The results for the “Relative activity (%)” value in the data set on Bacillus pumilus BOD [1] (EDTA 100 mM) and in the data set with Bacillus pumilus BOD [1] (EDTA 125 mM) were 95 ± 1% and 89 ± 3%, respectively. The activity at 100 µM in data set [2] (EDTA 0.1 mM) was found to be 97 ± 1%. In data set [2] (EDTA 1 mM), the activity at 1000 µM stood at 99 ± 5%. Besides, the activity at 10000 µM in data set [2] (EDTA 10 mM) was determined as 95 ± 1%. Further, the activity at 25000 µM in data set [2] (EDTA 25 mM) came out at 98 ± 3%. Besides, the activity at 50000 µM in data set [2] (EDTA 50 mM) worked out at 99 ± 4%. Moreover, in data set [2] (EDTA 75 mM), the activity at 75000 µM is 95 ± 2%. The activity at 100000 µM in data set [2] (EDTA 100 mM) came out at 95 ± 1%. The activity at 125000 µM in data set [2] (EDTA 125 mM) worked out at 89 ± 3%.
Turning to `O[C@@H](CS)[C@@H](O)CS` [DTT], the “Relative activity (%)” value in the data set with Bacillus pumilus BOD [1] (DTT 0.001 mM) came out at 99 ± 4%; in the data set on Bacillus pumilus BOD [1] (DTT 0.005 mM) it was 93 ± 2%; with Bacillus pumilus BOD [1] (DTT 0.01 mM) it was 93 ± 4%; in the data set with Bacillus pumilus BOD [1] (DTT 0.015 mM) it was 94 ± 3%; with Bacillus pumilus BOD [1] (DTT 0.03 mM) it was 85 ± 1%; with Bacillus pumilus BOD [1] (DTT 0.05 mM), 81 ± 4%.
Regarding `OC(CS)C(O)CS` (centres unmarked) [DTT], in data set [2] (DTT 0.001 mM), the activity at 1 µM came out at 99 ± 4%. For the same molecule, the activity at 5 µM in data set [2] (DTT 0.005 mM) worked out at 93 ± 2%. For the same molecule, the activity at 10 µM in data set [2] (DTT 0.01 mM) worked out at 93 ± 4%. Also, the activity at 15 µM in data set [2] (DTT 0.015 mM) amounted to 94 ± 3%. For the same molecule, the activity at 30 µM in data set [2] (DTT 0.03 mM) was determined as 85 ± 1%. For the same molecule, the activity at 50 µM in [2] (DTT 0.05 mM) worked out at 81 ± 4%.
In the case of `COc1cc(/C=N/N=C/c2cc(OC)c(O)c(OC)c2)cc(OC)c1O` [SGZ, Syringaldazine], the kcat in data set [3] is 116.1.
For conjugated bilirubin, in [4], the Km came out at 35.1 µM and the kcat is 66.8 s⁻¹.
The molecule `COc1cccc(OC)c1O` [DMP, 2,6-Dimethoxyphenol] yielded a kss in [5] of 57.3 s⁻¹.
On to `NC(N)=O` [urea], for which the figures for the “effect of urea on BOD activity (ABTS oxidation)” value with Bacillus pumilus BOD [6] (25° C.) and with Bacillus pumilus BOD [6] (37° C.) were “activating effect” and “not found”, respectively.

B1: Bacillus pumilus bilirubin oxidase (BOD), wild type, strain SAFR-032, SEQ ID No. 2 (C-terminal 6xHis tag) (Bacillus pumilus SAFR-032) (protein)
chain: MASMTGGQQMGRGSMNLEKFVDELPIPEVAEPVKKNPRQTYYEIAMEEVFLKVHRDLPPTKLWTYNGSLPGPTIHANRNEKVKVKWMNKLPLKHFLPVDHTIHEGHHDEPEVKTVVHLHGGVTPASSDGYPEAWFSRDFEATGPFFEREVYEYPNHQQACTLWYHDHAMALTRLNVYAGLAGFYLISDAFEKSLELPKDEYDIPLMIMDRTFQEDGALFYPSRPNNTPEDSDLPDPSIVPFFCGETILVNGKVWPYLEVEPRKYRFRILNASNTRTYELHLDNDATILQIGSDGGFLPRPVHHQSFTIAPAERFDVIIDFSAYENKTITLKNKAGCGQEVNPETDANIMQFKVTRPLKGRAPKTLRPIFKPLPPLRPSRADQERTLTLTGTQDKYGRPILLLDNHFWNDPVTENPRLGSVEVWSIVNPTRGTHPIHLHLVQFRVIDRRPFDTEVYQSTGDIVYTGPNEAPPLHEQGYKDTIQAHAGEVIRIIARFVPYSGRYVWHCHILEHEDYDMMRPMDIILEHHHHHH
Consider B1, for which the results for the Km in data set [7], in [8] and in [9] were 22 µM, 45.6 µM and 822 µM, respectively. Also, the kcat in [7] worked out at 70 s⁻¹.

B2: Bacillus pumilus BOD: wild-type bilirubin oxidase of Bacillus pumilus strain SAFR032, SEQ ID No. 2, produced in E. coli with C-terminal 6HIS tag (protein, listed as Bacillus pumilus)
chain: MASMTGGQQMGRGSMNLEKFVDELPIPEVAEPVKKNPRQTYYEIAMEEVFLKVHRDLPPTKLWTYNGSLPGPTIHANRNEKVKVKWMNKLPLKHFLPVDHTIHEGHHDEPEVKTVVHLHGGVTPASSDGYPEAWFSRDFEATGPFFEREVYEYPNHQQACTLWYHDHAMALTRLNVYAGLAGFYLISDAFEKSLELPKDEYDIPLMIMDRTFQEDGALFYPSRPNNTPEDSDLPDPSIVPFFCGETILVNGKVWPYLEVEPRKYRFRILNASNTRTYELHLDNDATILQIGSDGGFLPRPVHHQSFTIAPAERFDVIIDFSAYENKTITLKNKAGCGQEVNPETDANIMQFKVTRPLKGRAPKTLRPIFKPLPPLRPSRADQERTLTLTGTQDKYGRPILLLDNHFWNDPVTENPRLGSVEVWSIVNPTRGTHPIHLHLVQFRVIDRRPFDTEVYQSTGDIVYTGPNEAPPLHEQGYKDTIQAHAGEVIRIIARFVPYSGRYVWHCHILEHEDYDMMRPMDIILEHHHHHH
modifications: C-terminal 6His tag
Consider B2, for which, in [10], the “specific activity for ABTS” value was 375 U/mg. In data set [11], the “discolouring activity on dyes used in the textile industry” value is “discolouring activity”. Also, the heat stability result in data set [12] is given as “very good heat stability”.

For the origin of these results see patent US9617577B2, “Bacillus pumilus bilirubin oxidase and applications thereof” (CENTRE NATIONAL DE LA RECHERCHE SCIENTIFIQUE, priority 2010, dated 2017).
